Results as given in patent US9416126B2, “Compounds inhibiting leucine-rich repeat kinase enzyme activity” (Merck Sharp & Dohme Corp., priority 2013, dated 2016).
pIC50: −log10 of the molar value.

Key:
Assay type in all cases: biochemical
[1] = target: T1, LRRK2(G2019S mutation, GST-LRRK2(amino acids 970-2527)) (Homo sapiens (Human), UniProt Q5S007, G2019S); assay: LRRK2 5 mM ATP LanthaScreen Assay
Description: The data presented for the 5 mM and Km ATP LanthaScreen™ Assay represents mean IC50 values based on several test results and may have reasonable. deviations depending on the specific conditions and reagents used. Reagents for the LRRK2 5 mM and Km ATP LanthaScreen™ Assay were purchased from Life Technologies Corporation.
LRRK2 5 mM ATP LanthaScreen™ Assay
a) 400 nl of a 1:2.15 serial dilution of test compound(98 μM top assay concentration) is spotted via Labcyte Echo to certain wells in a 384 well black, untreated plate. Control wells contain 400 nl of either DMSO or 400 nl of a known inhibitor in DMSO.
b) 10 μl of a 2.5 nM LRRK2(G2019S mutation, GST-LRRK2(amino acids 970-2527)) enzyme solution in 1× assay buffer(50 mM Tris pH 8.5, 10 mM MgCl2, 0.01% Brij-35, 1.0 mM EGTA, 2 mM DTT, 0.05 mM NaVO4) is added to all wells.
c) A 30 minute room temperature incubation is followed by addition of 10 μl of 800 nM fluorescein labeled LRRKtide peptide substrate and 10 mM ATP solution in 1× assay buffer to all wells.
d) After a 35 minute room temperature incubation, 20 μl of TR-FRET Dilution Buffer(Invitrogen PV3756B) containing 4 nM Tb-labeled anti-phospho LRRKtide antibody and 20 mM EDTA is added to all wells.
e) Plates are incubated at room temperature for 1 hour and read on an Envision™ multi-mode plate reader with LanthaScreen™ settings. Results are analysed using Assay Data Analyzer.

[2] = target: T1, LRRK2(G2019S mutation, GST-LRRK2(amino acids 970-2527)); assay: LRRK2 Km ATP LanthaScreen Assay
In short: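 TR-FRET: GST-LRRK2 970-2527 G2019S (2.5 nM solution) preincubated 30 min with compound (98 μM top, 1:2.15 dilutions), then 800 nM fluorescein-LRRKtide and 184 μM ATP solution added for 60 min at room temperature in Tris pH 8.5 buffer. Stopped with EDTA and Tb anti-phospho-LRRKtide antibody; IC50 is a mean of several tests.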

kinases [3] = target: kinases (Homo sapiens, UniProt P15056, V600E); assay: Kinase selectivity using Z'-LYTE or Adapta; details: 1 μM of Example; Z-LYTE platform
kinases [4] = assay: Kinase selectivity using Z'-LYTE or Adapta; details: 1 μM of Example; for percent inhibition IRAK1: Adapta platform; for percent inhibition AURKB (Aurora B) / percent inhibition CDK1/cyclin B / percent inhibition CHEK2 (CHK2) / percent inhibition CLK2 / percent inhibition DYRK1A / percent inhibition JAK3 / percent inhibition MAPK1 (ERK2) / percent inhibition MAPK8 (JNK1): Z-LYTE platform
[5] = Km ATP (184 μM ATP solution), G2019S LRRK2, mean IC50

T1 sequence (Q5S007 970-2527 G2019S): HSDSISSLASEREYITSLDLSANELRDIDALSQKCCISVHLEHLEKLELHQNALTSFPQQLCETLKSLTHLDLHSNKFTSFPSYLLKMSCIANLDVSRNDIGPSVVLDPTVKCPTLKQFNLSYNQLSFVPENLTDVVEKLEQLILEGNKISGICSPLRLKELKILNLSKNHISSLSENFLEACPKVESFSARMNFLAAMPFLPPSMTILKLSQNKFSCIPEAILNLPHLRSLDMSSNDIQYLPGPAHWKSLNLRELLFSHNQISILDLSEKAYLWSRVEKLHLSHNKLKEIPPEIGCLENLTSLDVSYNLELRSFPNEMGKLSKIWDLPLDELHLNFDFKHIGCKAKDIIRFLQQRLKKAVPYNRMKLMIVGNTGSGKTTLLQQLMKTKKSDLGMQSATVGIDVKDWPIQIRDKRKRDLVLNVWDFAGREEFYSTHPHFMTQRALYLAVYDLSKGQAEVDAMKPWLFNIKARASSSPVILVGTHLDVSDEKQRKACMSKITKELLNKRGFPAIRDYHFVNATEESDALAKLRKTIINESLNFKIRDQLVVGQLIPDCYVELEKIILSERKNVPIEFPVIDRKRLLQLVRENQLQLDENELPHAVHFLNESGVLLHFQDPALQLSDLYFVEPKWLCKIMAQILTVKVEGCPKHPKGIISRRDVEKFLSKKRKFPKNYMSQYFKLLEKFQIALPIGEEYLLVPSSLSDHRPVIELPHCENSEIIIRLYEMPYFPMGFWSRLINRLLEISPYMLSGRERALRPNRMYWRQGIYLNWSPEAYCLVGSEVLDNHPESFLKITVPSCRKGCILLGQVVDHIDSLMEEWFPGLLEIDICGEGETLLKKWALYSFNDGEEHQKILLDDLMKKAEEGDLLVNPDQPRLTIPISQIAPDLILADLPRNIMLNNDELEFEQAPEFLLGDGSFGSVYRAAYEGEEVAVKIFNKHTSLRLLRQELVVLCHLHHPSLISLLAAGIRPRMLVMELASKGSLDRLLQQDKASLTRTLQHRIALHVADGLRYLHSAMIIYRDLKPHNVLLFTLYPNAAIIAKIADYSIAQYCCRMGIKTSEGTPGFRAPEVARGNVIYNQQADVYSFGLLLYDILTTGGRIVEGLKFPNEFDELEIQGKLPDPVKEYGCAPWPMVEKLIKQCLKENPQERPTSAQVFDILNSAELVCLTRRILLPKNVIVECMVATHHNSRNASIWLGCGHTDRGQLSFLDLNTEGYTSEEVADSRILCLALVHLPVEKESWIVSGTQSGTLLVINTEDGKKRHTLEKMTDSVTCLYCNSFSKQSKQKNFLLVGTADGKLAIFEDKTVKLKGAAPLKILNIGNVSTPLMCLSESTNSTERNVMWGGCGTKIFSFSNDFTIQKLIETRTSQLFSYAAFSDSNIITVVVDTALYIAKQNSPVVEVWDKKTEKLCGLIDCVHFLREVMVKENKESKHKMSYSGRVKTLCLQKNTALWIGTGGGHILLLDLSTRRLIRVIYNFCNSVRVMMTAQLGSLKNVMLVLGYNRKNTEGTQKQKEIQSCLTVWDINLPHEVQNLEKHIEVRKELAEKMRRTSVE
Sequence of kinases (Homo sapiens, UniProt P15056, V600E) (P15056 2-766 V600E limits assumed): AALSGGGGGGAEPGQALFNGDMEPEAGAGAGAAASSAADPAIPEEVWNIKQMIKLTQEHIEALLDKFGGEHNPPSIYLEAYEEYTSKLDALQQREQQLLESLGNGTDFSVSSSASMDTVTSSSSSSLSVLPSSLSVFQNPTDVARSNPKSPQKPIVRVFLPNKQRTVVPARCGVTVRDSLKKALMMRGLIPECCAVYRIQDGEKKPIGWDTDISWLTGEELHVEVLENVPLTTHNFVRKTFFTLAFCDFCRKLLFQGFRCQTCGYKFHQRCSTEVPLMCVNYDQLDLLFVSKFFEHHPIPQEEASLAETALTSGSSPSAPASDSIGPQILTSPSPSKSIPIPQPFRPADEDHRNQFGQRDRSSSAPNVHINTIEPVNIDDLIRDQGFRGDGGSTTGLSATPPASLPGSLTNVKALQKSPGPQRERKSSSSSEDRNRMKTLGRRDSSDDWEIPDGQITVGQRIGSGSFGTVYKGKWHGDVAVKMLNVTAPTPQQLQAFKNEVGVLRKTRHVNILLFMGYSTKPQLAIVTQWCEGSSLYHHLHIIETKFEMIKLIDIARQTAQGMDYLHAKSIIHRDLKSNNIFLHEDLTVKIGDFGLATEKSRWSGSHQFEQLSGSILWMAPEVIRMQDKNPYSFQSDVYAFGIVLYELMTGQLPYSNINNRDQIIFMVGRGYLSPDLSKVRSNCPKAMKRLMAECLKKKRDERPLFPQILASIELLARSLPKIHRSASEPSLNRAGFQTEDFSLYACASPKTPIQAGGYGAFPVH

| SMILES | pIC50 [2, 5] | pIC50 ([2]; Table U) | other results |
| --- | --- | --- | --- |
| Cn1cc(-c2ccc3[nH]nc(-c4cc(N5CCOCC5)ncn4)c3c2)cn1 [Example A1] | 8.64 |  | pIC50 [1]: 7.39 |
| Cn1cc(-c2ccc3[nH]nc(-c4cc(N5CCN(S(C)(=O)=O)CC5)ncn4)c3c2)cn1 [Example A3] | 8.48 |  | pIC50 [1]: 7.44 |
| CCN1CCN(c2cc(-c3n[nH]c4ccc(-c5cnn(C)c5)cc34)ncn2)CC1 [Example A8] | 9.12 |  | pIC50 [1]: 7.85 |
| CC(C)Oc1ccc2[nH]nc(-c3cc(N4CCO[C@H](C)C4)ncn3)c2c1 [Example D2] | 8.29 |  | pIC50 [1]: 7.17; percent inhibition BRAF V599E (kinases [3]): −11%; percent inhibition IRAK1 (kinases [4]): −7%; percent inhibition AURKB (Aurora B) (kinases [4]): 9%; percent inhibition CDK1/cyclin B (kinases [4]): 7%; percent inhibition CHEK2 (CHK2) (kinases [4]): 1%; percent inhibition CLK2 (kinases [4]): 79%; percent inhibition DYRK1A (kinases [4]): 13%; percent inhibition JAK3 (kinases [4]): 8%; percent inhibition MAPK1 (ERK2) (kinases [4]): 5%; percent inhibition MAPK8 (JNK1) (kinases [4]): 28% |
| CC(C)Oc1ccc2[nH]nc(-c3cc(N4CCOCC4)ncn3)c2c1 [Example D6] | 8.23 |  | pIC50 [1]: 7.02; percent inhibition BRAF V599E (kinases [3]): 2%; percent inhibition IRAK1 (kinases [4]): −1%; percent inhibition AURKB (Aurora B) (kinases [4]): 16%; percent inhibition CDK1/cyclin B (kinases [4]): 7%; percent inhibition CHEK2 (CHK2) (kinases [4]): 7%; percent inhibition CLK2 (kinases [4]): 66%; percent inhibition DYRK1A (kinases [4]): 12%; percent inhibition JAK3 (kinases [4]): 5%; percent inhibition MAPK1 (ERK2) (kinases [4]): 7%; percent inhibition MAPK8 (JNK1) (kinases [4]): 28% |
| CC(C)Oc1cc2c(-c3cc(N4CCN(S(C)(=O)=O)CC4)ncn3)n[nH]c2cc1F [Example D24] | 8.51 |  | pIC50 [1]: 7.55 |
| CC(C)Oc1cc2c(-c3cc(N4CCN(C)CC4)ncn3)n[nH]c2cc1F [Example D25] | 8.36 |  | percent inhibition BRAF V599E (kinases [3]): 7%; percent inhibition IRAK1 (kinases [4]): 15%; percent inhibition AURKB (Aurora B) (kinases [4]): 14%; percent inhibition CDK1/cyclin B (kinases [4]): 17%; percent inhibition CHEK2 (CHK2) (kinases [4]): 8%; percent inhibition CLK2 (kinases [4]): 89%; percent inhibition DYRK1A (kinases [4]): 39%; percent inhibition JAK3 (kinases [4]): 8%; percent inhibition MAPK1 (ERK2) (kinases [4]): 0%; percent inhibition MAPK8 (JNK1) (kinases [4]): 56% |
| CC(C)Oc1ccc2[nH]nc(-c3cc(N4CCC5(CCNC5=O)CC4)ncn3)c2c1 [Example D32] | 8.64 |  | pIC50 [1]: 7.52 |
| CC(C)Oc1cc2c(-c3cc(N4C[C@@H](C)O[C@@H](C)C4)ncn3)n[nH]c2cc1F [Example D41] | 8.54 |  | pIC50 [1]: 7.66 |
| COC[C@H](C)Oc1ccc2[nH]nc(-c3cc(N4CCOCC4)ncn3)c2c1 [Example H4] | 8.59 |  | pIC50 [1]: 7.48 |
| COCCN1CCN(c2cc(-c3n[nH]c4ccc(OC(C)C)cc34)ncn2)CC1 [Example K10] | 8.31 |  | pIC50 [1]: 7.62 |
| C[C@@H]1CN(c2cc(-c3n[nH]c4ccc(-c5cnc(N6CCCC6)s5)cc34)ncn2)C[C@H](C)O1 [Example Q13] |  |  | pIC50 ([2]; Examples Q1-Q20): 8.12 |
| COCCn1cc(-c2ccc3[nH]nc(-c4cc(N5C[C@@H](C)O[C@@H](C)C5)ncn4)c3c2)cn1 [Example Q14] |  |  | pIC50 ([2]; Examples Q1-Q20): 8.74 |
| COc1cc(-c2ccc3[nH]nc(-c4cc(N5C[C@@H](C)O[C@@H](C)C5)ncn4)c3c2)ccn1 [Example Q15] |  |  | pIC50 ([2]; Examples Q1-Q20): 6.81 |
| C[C@@H]1CN(c2cc(-c3n[nH]c4ccc(-c5ccc6nncn6c5)cc34)ncn2)C[C@H](C)O1 [Example Q16] |  |  | pIC50 ([2]; Examples Q1-Q20): 7.22 |
| C[C@@H]1CN(c2cc(-c3n[nH]c4ccc(-c5ccc(C(=O)NCCO)cc5)cc34)ncn2)C[C@H](C)O1 [Example Q17] |  |  | pIC50 ([2]; Examples Q1-Q20): 7.11 |
| C[C@@H]1CN(c2cc(-c3n[nH]c4ccc(-c5ccc(C#N)cc5)cc34)ncn2)C[C@H](C)O1 [Example Q18] |  |  | pIC50 ([2]; Examples Q1-Q20): 6.75 |
| C[C@@H]1CN(c2cc(-c3n[nH]c4ccc(-c5cccc(C#N)c5)cc34)ncn2)C[C@H](C)O1 [Example Q19] |  |  | pIC50 ([2]; Examples Q1-Q20): 7.32 |
| CCN(CC)C(=O)c1ccc(-c2ccc3[nH]nc(-c4cc(N5C[C@@H](C)O[C@@H](C)C5)ncn4)c3c2)cc1 [Example Q20] |  |  | pIC50 ([2]; Examples Q1-Q20): 6.07 |

| SMILES | pIC50 [2, 5] | pIC50 ([2]; Table U) | other results |
| --- | --- | --- | --- |
| CC(C)=Cc1ccc2[nH]nc(-c3cc(N4CCO[C@H](C)C4)ncn3)c2c1 [Example S1] | 7.79 |  |  |
| CC(C)=Cc1ccc2[nH]nc(-c3cc(N4CCN(S(C)(=O)=O)CC4)ncn3)c2c1 [Example S2] | 7.54 |  |  |
| CC(C)=Cc1ccc2[nH]nc(-c3cc(N4CCN(C)CC4)ncn3)c2c1 [Example S3] | 7.48 |  |  |
| CC(C)=Cc1ccc2[nH]nc(-c3cc(N4CCN(C)C(=O)C4)ncn3)c2c1 [Example S4] | 7.44 |  |  |
| CC(C)=Cc1ccc2[nH]nc(-c3cc(N4C[C@@H](C)O[C@@H](C)C4)ncn3)c2c1 [Example S5] | 7.69 |  |  |
| c1cncc(-c2ccc3[nH]nc(-c4cc(N5CCOCC5)ncn4)c3c2)c1 [Example T1] | 8.26 |  |  |
| CS(=O)(=O)N1CCN(c2cc(-c3n[nH]c4ccc(-c5cccnc5)cc34)ncn2)CC1 [Example T2] | 8.14 |  |  |
| FC1(F)CCN(c2cc(-c3n[nH]c4ccc(-c5ccoc5)cc34)ncn2)CC1 [Example U1] |  | 7.06 |  |
| FC1(F)CCN(c2cc(-c3n[nH]c4ccc(-c5ccsc5)cc34)ncn2)CC1 [Example U2] |  | 6.46 |  |
| FC1(F)CCN(c2cc(-c3n[nH]c4ccc(C5=CCNCC5)cc34)ncn2)CC1 [Example U3] |  | 6.92 |  |
| COc1ccncc1-c1ccc2[nH]nc(-c3cc(N4CCC(F)(F)CC4)ncn3)c2c1 [Example U4] |  | 8.18 |  |
| CC1(C)CC(=O)C=C(c2ccc3[nH]nc(-c4cc(N5CCC(F)(F)CC5)ncn4)c3c2)C1 [Example U5] |  | 8.15 |  |
| FC1(F)CCN(c2cc(-c3n[nH]c4ccc(-c5cc[nH]n5)cc34)ncn2)CC1 [Example U6] |  | 8.67 |  |
| FC1(F)CCN(c2cc(-c3n[nH]c4ccc(-c5cn[nH]c5)cc34)ncn2)CC1 [Example U7] |  | 8.24 |  |
| c1nc(-c2n[nH]c3ccc(-c4ccoc4)cc23)cc(N2CCOCC2)n1 [Example U8] |  | 7.72 |  |
| c1nc(-c2n[nH]c3ccc(-c4ccsc4)cc23)cc(N2CCOCC2)n1 [Example U9] |  | 7.44 |  |
| Cc1ncc(-c2ccc3[nH]nc(-c4cc(N5CCOCC5)ncn4)c3c2)s1 [Example U10] |  | 8.66 |  |
| CC1(C)CC(=O)C=C(c2ccc3[nH]nc(-c4cc(N5CCOCC5)ncn4)c3c2)C1 [Example U11] |  | 8.79 |  |
| C1=C(c2ccc3[nH]nc(-c4cc(N5CCOCC5)ncn4)c3c2)CCNC1 [Example U12] |  | 7.15 |  |

| SMILES | pIC50 [2, 5] | pIC50 ([2]; Table U) | other results |
| --- | --- | --- | --- |
| COc1ccncc1-c1ccc2[nH]nc(-c3cc(N4CCOCC4)ncn3)c2c1 [Example U13] |  | 8.76 |  |
| c1cc(-c2ccc3[nH]nc(-c4cc(N5CCOCC5)ncn4)c3c2)[nH]n1 [Example U14] |  | 8.58 |  |
| Cc1ccc(-c2ccc3[nH]nc(-c4cc(N5CCOCC5)ncn4)c3c2)cc1 [Example U15] |  | 6.60 |  |
| c1nc(-c2n[nH]c3ccc(-c4cn[nH]c4)cc23)cc(N2CCOCC2)n1 [Example U16] |  | 8.64 |  |
| O=C1C=C(c2ccc3[nH]nc(-c4cc(N5CCOCC5)ncn4)c3c2)CCC1 [Example U17] |  | 8.79 |  |
| Clc1cc(-c2ccc3[nH]nc(-c4cc(N5CCOCC5)ncn4)c3c2)ccn1 [Example U18] |  | 6.57 |  |
| Cc1n[nH]c(C)c1-c1ccc2[nH]nc(-c3cc(N4CCOCC4)ncn3)c2c1 [Example U19] |  | 8.59 |  |
| CC(C)N1CCN(c2cc(-c3n[nH]c4ccc(-c5cccs5)cc34)ncn2)CC1 [Example U21] |  | 7.21 |  |
| CC(C)N1CCN(c2cc(-c3n[nH]c4ccc(-c5ccoc5)cc34)ncn2)CC1 [Example U22] |  | 8.04 |  |
| COc1ccncc1-c1ccc2[nH]nc(-c3cc(N4CCN(C(C)C)CC4)ncn3)c2c1 [Example U23] |  | 8.90 |  |
| CC(C)N1CCN(c2cc(-c3n[nH]c4ccc(-c5cn[nH]c5)cc34)ncn2)CC1 [Example U24] |  | 9.02 |  |
| CC(C)N1CCN(c2cc(-c3n[nH]c4ccc(-c5ccn[nH]5)cc34)ncn2)CC1 [Example U25] |  | 8.63 |  |
| COc1ccncc1-c1ccc2[nH]nc(-c3cc(N4C[C@@H](C)O[C@@H](C)C4)ncn3)c2c1 [Example U26] |  | 9.12 |  |
| C[C@@H]1CN(c2cc(-c3n[nH]c4ccc(-c5cn[nH]c5)cc34)ncn2)C[C@H](C)O1 [Example U27] |  | 8.87 |  |
| C[C@@H]1CN(c2cc(-c3n[nH]c4ccc(-c5ccn[nH]5)cc34)ncn2)C[C@H](C)O1 [Example U28] |  | 8.84 |  |
| Cc1n[nH]c(C)c1-c1ccc2[nH]nc(-c3cc(N4CCO[C@H](C)C4)ncn3)c2c1 [Example U29] |  | 8.49 |  |
| FC1(F)CCN(c2cc(-c3n[nH]c4ccc(-c5cccnc5)cc34)ncn2)CC1 [U] | 7.95 |  |  |
| CC(C)Cc1ccc2[nH]nc(-c3cc(N4CCOCC4)ncn3)c2c1 [V] | 7.25 |  |  |
